Tested on: duodenal mucosal alkaline secretion
Test: Test C: duodenal mucosal alkaline secretion assay
Assay type: in vivo
Settings: co-administration with title compounds of the Examples, anaesthetised rats
Description: Duodenal Mucosal Alkaline Secretion Assay
Compounds were exposed to the duodenal mucosa in barbiturate-anaesthetised rats prepared for in situ titration of duodenal mucosal alkaline secretion, according to the methodology described by Flemström et al in Am. J. Physiol. (1982) 243, G348.

Cc1cc(Cn2cnc3c2C[C@@H](C(=O)O)N(C(=O)C(c2ccccc2)c2ccccc2)C3)ccc1N(C)C [PD123319]
effect of co-administration on the mucosal alkalisation stimulated by title compounds: blocked
